Data: ChEMBL document CHEMBL4813995, “Synthesis and anti-trypanosomal activity of 3'-fluororibonucleosides derived from 7-deazapurine nucleosides” (Bioorg Med Chem Lett, 2021)

Experiments:
HeLa S3 = test: Cytotoxicity against human HeLa S3 cells assessed as reduction in cell viability by XTT assay; assay type: functional, cell-based
CCRF-CEM = test: Cytotoxicity against human CCRF-CEM cells assessed as reduction in cell viability by XTT assay; assay type: functional, cell-based
HepG2 = test: Cytotoxicity against human HepG2 cells assessed as reduction in cell viability by XTT assay; assay type: functional, cell-based
HL-60 = test: Cytotoxicity against human HL-60 cells assessed as reduction in cell viability by XTT assay; assay type: functional, cell-based
NHDF = test: Cytotoxicity against human NHDF cells assessed as reduction in cell viability by XTT assay; assay type: cell-based
[1] = system: Trypanosoma brucei brucei; test: Antitrypanosomal activity against Trypanosoma brucei brucei by drug sensitivity assay; assay type: functional, organism-based
[2] = Selective index, ratio of IC50 for human NHDF cells to EC50 for Trypanosoma brucei brucei; assay type: toxicity; details: read-out: Ratio IC50/EC50
[3] = system: Trypanosoma brucei gambiense; test: Antitrypanosomal activity against Trypanosoma brucei gambiense by drug sensitivity assay; assay type: functional, organism-based
[4] = Selective index, ratio of IC50 for human NHDF cells to EC50 for Trypanosoma brucei gambiense; assay type: toxicity; details: read-out: Ratio IC50/EC50

| SMILES | IC50 (HeLa S3) | IC50 (CCRF-CEM) | IC50 (HepG2) | IC50 (HL-60) | IC50 (NHDF) | EC50 [1] | selectivity ratio [2] | EC50 [3] | selectivity ratio [4] |
| --- | --- | --- | --- | --- | --- | --- | --- | --- | --- |
| Nc1ncnc2c1ccn2[C@@H]1O[C@H](CO)[C@@H](F)[C@H]1O | > 10 µM | > 10 µM | > 10 µM | > 10 µM | > 10 µM | 6 µM | > 1.7 | – | – |
| Nc1ncnc2c1c(I)cn2[C@@H]1O[C@H](CO)[C@@H](F)[C@H]1O | 6.3 µM | 4.5 µM | 1.1 µM | 1.13 µM | > 10 µM | 0.015 µM | > 666 | 22 nM | > 455 |
| Nc1ncnc2c1c(-c1cccs1)cn2[C@@H]1O[C@H](CO)[C@@H](F)[C@H]1O | > 10 µM | > 10 µM | > 10 µM | > 10 µM | > 10 µM | 4.92 µM | > 2 | – | – |
| Nc1ncnc2c1c(-c1ccco1)cn2[C@@H]1O[C@H](CO)[C@@H](F)[C@H]1O | > 10 µM | > 10 µM | > 10 µM | > 10 µM | > 10 µM | 1.59 µM | > 6 | – | – |
| Nc1ncnc2c1c(-c1ccc(Cl)cc1)cn2[C@@H]1O[C@H](CO)[C@@H](F)[C@H]1O | > 10 µM | > 10 µM | > 10 µM | > 10 µM | > 10 µM | 0.49 µM | > 20 | 990 nM | > 10 |
| Nc1ncnc2c1c(Br)cn2[C@@H]1O[C@H](CO)[C@@H](F)[C@H]1O | > 10 µM | > 10 µM | > 10 µM | > 10 µM | > 10 µM | 0.048 µM | > 208 | 37 nM | > 270 |
| Nc1ncnc2c1c(-c1ccc3ccccc3c1)cn2[C@@H]1O[C@H](CO)[C@@H](F)[C@H]1O | > 10 µM | > 10 µM | > 10 µM | > 10 µM | > 10 µM | 16.2 µM | – | – | – |
| Nc1ncnc2c1c(-c1cccc3c1oc1ccccc13)cn2[C@@H]1O[C@H](CO)[C@@H](F)[C@H]1O | > 10 µM | > 10 µM | > 10 µM | > 10 µM | > 10 µM | 15.4 µM | – | – | – |
